The results in this text go back to ChEMBL document CHEMBL1201862, “PubChem BioAssay data set” (2004).

The target in test [1] is Potassium voltage-gated channel subfamily KQT member 2 (Rattus norvegicus, UniProt O88943, W236L). Put plainly: KCNQ2 channel potentiators, dose response, mechanism study for KCNQ2 potentiator project, cell-based, automated electrophysiology (AID 2603). The format is functional.
Test [2] deals with T1, High affinity choline transporter 1 (Homo sapiens, UniProt Q9GZV3).
T1 sequence (Q9GZV3 whole entry): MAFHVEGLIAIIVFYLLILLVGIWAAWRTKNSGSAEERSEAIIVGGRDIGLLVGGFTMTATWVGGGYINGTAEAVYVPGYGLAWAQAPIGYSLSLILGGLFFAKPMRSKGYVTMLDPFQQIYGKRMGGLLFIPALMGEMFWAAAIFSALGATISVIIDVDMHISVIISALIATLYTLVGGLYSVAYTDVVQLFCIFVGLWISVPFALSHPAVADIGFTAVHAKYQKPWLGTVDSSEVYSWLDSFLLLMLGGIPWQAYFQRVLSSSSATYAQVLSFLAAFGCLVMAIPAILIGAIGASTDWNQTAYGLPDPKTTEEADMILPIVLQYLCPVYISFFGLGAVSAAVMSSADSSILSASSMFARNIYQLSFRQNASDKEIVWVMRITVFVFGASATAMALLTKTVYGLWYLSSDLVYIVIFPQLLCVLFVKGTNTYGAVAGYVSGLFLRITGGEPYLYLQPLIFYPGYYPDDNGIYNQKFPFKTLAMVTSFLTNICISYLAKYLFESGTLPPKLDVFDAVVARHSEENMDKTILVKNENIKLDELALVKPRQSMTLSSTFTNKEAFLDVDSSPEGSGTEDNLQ
In words: CHT inhibitors, dose response, cell-based, 10-point CRC, membrane potential dye (AID 588401).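 Note: membrane potential dye fluorescence of choline-evoked depolarization via CHT.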 The format is functional.

The subject of the next test is Vero. Put plainly: Vero cell cytotoxicity, cytotoxicity control for flavivirus capping enzyme inhibitors (AID 588742). To be noted: Chlorocebus sabaeus. The format is functional.
The next test deals with T2, Protein RecA (Mycobacterium tuberculosis, UniProt P9WHJ3).
T2 sequence (P9WHJ3 whole entry): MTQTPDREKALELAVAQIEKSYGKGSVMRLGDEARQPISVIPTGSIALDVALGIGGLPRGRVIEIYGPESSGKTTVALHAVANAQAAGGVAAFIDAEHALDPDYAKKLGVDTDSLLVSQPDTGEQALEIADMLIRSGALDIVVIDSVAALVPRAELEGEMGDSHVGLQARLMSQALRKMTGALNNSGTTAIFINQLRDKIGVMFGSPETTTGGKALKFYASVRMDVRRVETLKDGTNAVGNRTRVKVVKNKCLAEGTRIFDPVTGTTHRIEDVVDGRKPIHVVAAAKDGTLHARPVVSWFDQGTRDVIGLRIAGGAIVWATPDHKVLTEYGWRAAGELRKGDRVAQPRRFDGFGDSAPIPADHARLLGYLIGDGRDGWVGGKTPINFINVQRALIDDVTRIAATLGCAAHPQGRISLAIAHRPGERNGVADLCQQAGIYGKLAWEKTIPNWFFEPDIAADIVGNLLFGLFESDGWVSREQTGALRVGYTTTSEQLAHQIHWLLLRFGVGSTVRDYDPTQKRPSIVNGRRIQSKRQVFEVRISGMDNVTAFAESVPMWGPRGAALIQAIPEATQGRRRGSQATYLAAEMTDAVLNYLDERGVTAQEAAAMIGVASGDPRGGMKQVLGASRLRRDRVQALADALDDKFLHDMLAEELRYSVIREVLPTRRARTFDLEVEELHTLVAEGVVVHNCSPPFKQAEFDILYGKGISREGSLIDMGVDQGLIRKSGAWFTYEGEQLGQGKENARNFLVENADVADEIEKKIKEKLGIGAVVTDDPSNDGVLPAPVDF
Put plainly: Fluorescence Cell-Free Homogeneous Dose Retest to Identify Inhibitors of RecA-Intein Splicing Activity. [Related pubchem assays (depositor defined):AID2097, AID2223, AID489010, AID492950]. The format is functional.

Test [3] deals with T1, High affinity choline transporter 1. Put plainly: CHT inhibitors, dose response, cell-based, 5-point CRC, membrane potential dye (AID 504840). The format is functional.
Test [4] can be described thus: control 3'UTR Renilla luciferase suppression, dose response, counter-screen for Shn3 inhibitor project, cell-based, Clone20-Shn3RL, cherry-picked (AID 624133). The format is functional. A general note: A counterscreen serves to expose hits that act by an unwanted route or on another target.
Test [5] is described as follows: Shn3 3'UTR reporter inhibitors, dose response, cell-based, Clone20 osteoblasts, firefly luciferase, cherry-picked (AID 624132).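 Note: firefly luciferase luminescence from reporter carrying the Shn3 3'UTR in osteoblasts.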 The format is functional.
The target of test [6] is T3, Replicative DNA helicase DnaB (Mycobacterium tuberculosis, UniProt P9WMR3).
T3 sequence (P9WMR3 whole entry): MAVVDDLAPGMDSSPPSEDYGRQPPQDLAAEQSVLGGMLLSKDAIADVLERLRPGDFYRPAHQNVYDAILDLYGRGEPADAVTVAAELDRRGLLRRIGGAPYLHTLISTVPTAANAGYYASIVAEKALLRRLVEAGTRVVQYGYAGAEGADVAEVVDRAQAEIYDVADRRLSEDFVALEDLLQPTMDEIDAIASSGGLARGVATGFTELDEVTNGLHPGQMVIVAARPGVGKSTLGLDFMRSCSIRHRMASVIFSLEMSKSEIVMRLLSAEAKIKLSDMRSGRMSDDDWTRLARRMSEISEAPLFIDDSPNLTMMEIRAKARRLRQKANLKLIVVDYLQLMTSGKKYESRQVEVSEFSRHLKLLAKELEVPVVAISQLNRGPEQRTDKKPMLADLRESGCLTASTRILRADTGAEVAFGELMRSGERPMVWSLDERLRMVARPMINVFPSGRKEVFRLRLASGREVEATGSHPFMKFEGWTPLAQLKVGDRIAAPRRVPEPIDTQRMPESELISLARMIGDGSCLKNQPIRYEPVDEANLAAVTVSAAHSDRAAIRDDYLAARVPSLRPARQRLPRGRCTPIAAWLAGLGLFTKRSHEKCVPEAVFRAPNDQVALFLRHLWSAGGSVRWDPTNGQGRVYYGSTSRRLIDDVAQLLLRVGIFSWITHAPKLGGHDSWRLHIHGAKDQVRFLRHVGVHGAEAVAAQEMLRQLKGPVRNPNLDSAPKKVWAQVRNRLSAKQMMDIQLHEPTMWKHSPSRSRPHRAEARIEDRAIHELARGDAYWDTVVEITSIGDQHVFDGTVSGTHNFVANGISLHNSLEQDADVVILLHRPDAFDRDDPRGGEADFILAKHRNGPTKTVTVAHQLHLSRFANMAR
In words: DnaB intein splicing inhibitors, dose response, biochemical, cell-free fluorescence (AID 449749). The format is functional.

For test [7], the target named is Luciferin 4-monooxygenase (Photinus pyralis, UniProt P08659). In words: Counter Screen for Luciferase-based Assay Positives. [Related pubchem assays: 620, 618, 411 ].
In test [8] the target is T4, Microphthalmia-associated transcription factor (Homo sapiens, UniProt O75030).
T4 sequence (O75030 whole entry): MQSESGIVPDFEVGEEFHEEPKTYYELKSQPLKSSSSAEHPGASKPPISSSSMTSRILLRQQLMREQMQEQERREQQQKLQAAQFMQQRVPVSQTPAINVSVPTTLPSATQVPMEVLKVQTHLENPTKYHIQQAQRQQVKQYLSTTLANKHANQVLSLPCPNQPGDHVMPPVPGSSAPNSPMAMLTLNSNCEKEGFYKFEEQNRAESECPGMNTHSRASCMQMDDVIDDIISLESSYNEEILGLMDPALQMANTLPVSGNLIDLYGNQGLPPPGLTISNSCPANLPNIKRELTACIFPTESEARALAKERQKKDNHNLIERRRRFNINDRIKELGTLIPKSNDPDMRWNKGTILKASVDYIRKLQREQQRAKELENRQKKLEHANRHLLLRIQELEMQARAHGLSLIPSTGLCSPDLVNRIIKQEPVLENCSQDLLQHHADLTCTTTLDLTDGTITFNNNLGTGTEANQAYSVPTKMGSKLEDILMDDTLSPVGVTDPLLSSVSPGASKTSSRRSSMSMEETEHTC
In words: TRPM1 promoter luciferase signal decrease, dose response, MITF inhibitor project, cell-based, SK-MEL-5, cherry-picked, set 3 (AID 493073).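 Note: SK-MEL-5 melanoma cells with luciferase driven by the MITF target TRPM1 promoter.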 The format is functional.

For a further test, the system named is HT-1080. In words: cytotoxicity in HT1080 fibrosarcoma cells, cell-based, fluorescence readout (AID 620). The format is functional. To be noted: Homo sapiens.
Test [9] concerns the target T5, Neuropeptide Y receptor type 1 (Homo sapiens, UniProt P25929).
T5 sequence (P25929 whole entry): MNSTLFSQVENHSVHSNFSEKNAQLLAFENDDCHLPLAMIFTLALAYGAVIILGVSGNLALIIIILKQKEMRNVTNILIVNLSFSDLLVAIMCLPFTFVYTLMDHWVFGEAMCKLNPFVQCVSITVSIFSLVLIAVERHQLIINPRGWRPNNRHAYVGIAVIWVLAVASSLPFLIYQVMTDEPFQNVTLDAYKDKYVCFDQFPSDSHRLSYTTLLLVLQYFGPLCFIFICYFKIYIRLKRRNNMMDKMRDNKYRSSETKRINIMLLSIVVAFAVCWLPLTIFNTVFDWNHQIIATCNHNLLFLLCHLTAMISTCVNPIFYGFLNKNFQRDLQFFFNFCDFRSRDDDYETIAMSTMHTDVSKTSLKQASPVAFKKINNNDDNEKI
Put plainly: Fluorescence-based counterscreen for agonists of NPY-Y2: cell-based high-throughput dose response assay for agonists of NPY-Y1. The format is functional.

Test [10] is described as follows: Luminescent dose response cell-based high throughput screening assay for inhibitors of the Janus kinase 2 mutant JAK2V617F. [Related pubchem assays: 1446 (Primary screen.), 1521 (Confirmation assay.), 1486 (Counter screen.)]. The format is functional.
Test [11] addresses T6, Neuropeptide Y receptor type 2 (Homo sapiens, UniProt P49146).
T6 sequence (P49146 whole entry): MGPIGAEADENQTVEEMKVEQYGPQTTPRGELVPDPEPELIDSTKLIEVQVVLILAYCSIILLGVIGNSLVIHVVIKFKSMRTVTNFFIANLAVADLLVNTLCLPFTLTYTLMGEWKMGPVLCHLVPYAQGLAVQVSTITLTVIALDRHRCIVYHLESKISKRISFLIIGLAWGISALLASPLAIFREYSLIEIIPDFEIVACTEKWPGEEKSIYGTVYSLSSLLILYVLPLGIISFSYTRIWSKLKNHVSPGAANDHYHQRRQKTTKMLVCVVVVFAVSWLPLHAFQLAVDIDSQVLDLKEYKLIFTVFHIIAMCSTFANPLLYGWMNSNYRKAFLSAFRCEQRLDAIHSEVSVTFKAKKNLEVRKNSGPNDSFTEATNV
In words: Fluorescence-based cell-based high-throughput dose response assay for agonists of NPY-Y2. [Related pubchem assays: 1703 (Screening assay (CNGC inhibitors).), 1359 (Screening assay (NPY-Y2 potentiators or agonists).), 1304 (Screening assay (NPY-Y1 potentiators or agonists).), 1710 (Screening assay (NPY-Y2 agonists).), 1791 (Summary AID.)]. The format is functional.

For another test, the system named is HEK293. In words: Fluorescence-based counterscreen for potentiators or agonists of NPY-Y2: cell-based high-throughput dose response assay to identify inhibitors of cyclic nucleotide gated ion channel (CNGC) activity. In this assay, the parental HEK293 cell line transfected with a cyclic-nucleotide gated ion channel (CNGC)-based cAMP sensor is used to measure inhibition of isoproterenol-induced CNGC activity by test compound. The format is functional. Particulars: Homo sapiens.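 Note: stimulus is 1 µM isoproterenol at EC100 plus PDE inhibitor Ro 20-1724 at 25 µM.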

Test [12] is described as follows: A Cell Based Secondary Assay To Explore Cytotoxicity of Compounds that Sensitize Mycobacterium Tuberculosis to Beta-Lactam Antibiotics. The format is functional.
The target of test [13] is T7, Polyadenylate-binding protein 1 (Homo sapiens, UniProt P11940). In words: PABP1 MLLE–PAM2 interaction inhibitors, dose response, miRNA deadenylation inhibitor project, biochemical, fluorescence polarization, Cy5-PAM2 peptide, secondary (AID 602260). The format is functional. Particulars: read-out: IC50_Mean. A general note: Polarisation of emitted light reports the rotation of a fluorescent probe.

Test [14] deals with T7, Polyadenylate-binding protein 1. Put plainly: PABP1 MLLE–PAM2 binding inhibitor potency, dose response, biochemical, fluorescence polarization, FITC-PAM2 peptide (AID 602259). The format is functional. Particulars: read-out: IC50_Mean.

The term EC50 denotes the midpoint of the concentration-response curve. Broadly, the CC50 is the concentration giving 50% cytotoxicity. A word on the AC50: it is the concentration at which the activity in the assay is half-maximal.

Activity calls are given as the source filed them.

Luciferin 4-monooxygenase, sequence (P08659 whole entry): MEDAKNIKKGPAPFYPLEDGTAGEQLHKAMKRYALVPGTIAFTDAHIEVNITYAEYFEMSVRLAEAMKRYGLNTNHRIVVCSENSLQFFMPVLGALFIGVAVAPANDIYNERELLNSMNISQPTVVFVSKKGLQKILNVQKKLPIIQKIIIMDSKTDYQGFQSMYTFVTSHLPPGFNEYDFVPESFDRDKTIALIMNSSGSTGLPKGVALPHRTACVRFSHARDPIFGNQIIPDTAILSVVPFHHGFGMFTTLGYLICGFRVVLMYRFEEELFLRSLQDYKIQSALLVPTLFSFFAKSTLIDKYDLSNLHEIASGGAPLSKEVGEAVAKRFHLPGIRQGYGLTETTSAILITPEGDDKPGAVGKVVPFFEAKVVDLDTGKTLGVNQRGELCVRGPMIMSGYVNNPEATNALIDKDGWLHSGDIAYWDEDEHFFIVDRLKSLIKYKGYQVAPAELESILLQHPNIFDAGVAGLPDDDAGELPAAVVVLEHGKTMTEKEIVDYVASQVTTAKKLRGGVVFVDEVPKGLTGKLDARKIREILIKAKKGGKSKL
T7 sequence (P11940 whole entry): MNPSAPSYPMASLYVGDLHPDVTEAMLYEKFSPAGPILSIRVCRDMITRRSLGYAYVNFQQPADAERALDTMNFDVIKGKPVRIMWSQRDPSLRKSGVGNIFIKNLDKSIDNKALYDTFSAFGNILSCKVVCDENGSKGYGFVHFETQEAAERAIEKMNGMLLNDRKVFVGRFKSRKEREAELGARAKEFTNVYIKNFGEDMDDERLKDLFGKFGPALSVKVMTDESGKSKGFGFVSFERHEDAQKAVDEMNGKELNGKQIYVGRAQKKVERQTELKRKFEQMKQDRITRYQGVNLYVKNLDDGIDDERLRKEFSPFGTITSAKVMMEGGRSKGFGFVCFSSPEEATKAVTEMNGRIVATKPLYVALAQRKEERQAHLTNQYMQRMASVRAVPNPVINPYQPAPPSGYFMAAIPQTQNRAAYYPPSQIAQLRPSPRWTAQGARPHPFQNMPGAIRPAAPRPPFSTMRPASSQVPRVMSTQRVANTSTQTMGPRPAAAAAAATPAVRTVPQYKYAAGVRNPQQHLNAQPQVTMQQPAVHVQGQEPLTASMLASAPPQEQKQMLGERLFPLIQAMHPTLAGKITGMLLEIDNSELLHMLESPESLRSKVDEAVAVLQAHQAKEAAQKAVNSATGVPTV
Potassium voltage-gated channel subfamily KQT member 2, sequence (O88943 whole entry W236L): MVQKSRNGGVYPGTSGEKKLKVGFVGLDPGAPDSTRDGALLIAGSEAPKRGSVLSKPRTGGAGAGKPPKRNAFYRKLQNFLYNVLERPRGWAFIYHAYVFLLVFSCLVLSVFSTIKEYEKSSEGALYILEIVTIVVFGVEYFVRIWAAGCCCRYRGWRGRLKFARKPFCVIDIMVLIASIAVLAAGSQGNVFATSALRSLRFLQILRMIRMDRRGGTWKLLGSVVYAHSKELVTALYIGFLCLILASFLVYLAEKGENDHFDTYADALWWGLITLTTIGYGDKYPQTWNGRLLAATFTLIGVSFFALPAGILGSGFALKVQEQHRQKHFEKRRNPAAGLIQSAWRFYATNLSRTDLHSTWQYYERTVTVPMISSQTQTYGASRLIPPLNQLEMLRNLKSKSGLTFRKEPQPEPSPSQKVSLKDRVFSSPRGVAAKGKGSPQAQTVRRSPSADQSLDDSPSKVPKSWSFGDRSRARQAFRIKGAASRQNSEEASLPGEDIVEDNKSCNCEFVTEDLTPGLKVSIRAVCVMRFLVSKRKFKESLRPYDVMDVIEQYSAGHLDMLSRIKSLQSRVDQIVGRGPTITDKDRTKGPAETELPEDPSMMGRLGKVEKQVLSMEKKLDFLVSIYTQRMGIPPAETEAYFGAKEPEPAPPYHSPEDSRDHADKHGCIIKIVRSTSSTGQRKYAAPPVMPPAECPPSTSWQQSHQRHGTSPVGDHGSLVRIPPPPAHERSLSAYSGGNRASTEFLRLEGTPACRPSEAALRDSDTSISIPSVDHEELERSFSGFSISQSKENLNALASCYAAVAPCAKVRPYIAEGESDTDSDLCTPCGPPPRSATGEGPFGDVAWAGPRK

For `Cc1ccc(CS(=O)(=O)c2ncc(Cl)c(C(=O)Nc3nnc(C)s3)n2)cc1`, the EC50 in [1] was 5.4 µM (active); on Protein RecA it was 16 µM (active). The IC50 was 3.98 µM (active) in test [2] and 4.05 µM (active) in [3]. The CC50 in the test on Vero is 17.4 µM (active). Further, the AC50 was 6.75 µM (active) in [4], 639 nM (active) in test [5] and 14.2 µM (active) in test [6].

`COc1ccc(/C(O)=C\C=N\c2ccccn2)cc1`: the EC50 in test [7] is 73.2 µM (active); with HT-1080, > 50 µM (not active). Moreover, the AC50 in [8] was 3.72 µM (active).

As for `O=C(CCl)NC(=O)NC12CC3CC(CC(C3)C1)C2`, the EC50 was > 35.4 µM (not active) in [9], > 35.4 µM (not active) in [11], > 35.4 µM (not active) in the test with HEK293 and 5.47 µM (active) on Protein RecA. Further, the IC50 in test [10] was 870 nM (active). In addition, the AC50 in test [6] was 12 µM (active).

With `Cc1ccc(NC(=O)c2ccc3c(c2)OCCO3)cc1`, the EC50 is 0.81 µM (active) in [7] and > 50 µM (not active) in the test with HT-1080.

For `N#C/C(=C(/O)COC(=O)CCc1ccc(S(=O)(=O)N2CCOCC2)cc1)c1nc2ccccc2[nH]1`, in test [12], the CC50 is > 40 µM (active).

On to `CCC(=O)N1CCN(c2ccc(NC(=S)NC(=O)c3ccc(OC)c([N+](=O)[O-])c3)cc2)CC1`, for which the IC50 in [13] and in test [14] was > 66 µM (inactive) each time. For the same molecule, in [12], the CC50 was > 40 µM (active).
